Measured values published in patent publication US20040170581A1, “Cosmetic agents” (priority 2001, published 2004).
One block for each molecule: values may come before it.

Experiments:
[1] = tested on: superoxide anions O2° produced by lipoxygenase; experiment: Anti-free radical test with superoxide anions produced by lipoxygenase; assay type: biochemical
Description: Activity against free radicals was determined by a biochemical test with a reactive oxygen species (ROS), the so-called superoxide anion (O2°). Superoxide anions come from xanthine oxidase and lipoxygenase activities. Xanthine oxidase (XOD) is an enzyme which is activated during oxidative stress and catalyzes the release of O2° during the degradation of hypoxanthine (HX) which is produced in excess in the event of a disturbance to the energy cell metabolism. O2° is then reacted spontaneously or by superoxide dismutase (SOD) to form hydrogen peroxide (H2O2) which in turn is a source of HO radicals which continue reacting in the Fenton reaction. O2° released during an inflammation process is formed from arachidonic acid by the lipoxygenase activity of leucocytes during the leucotriene synthesis (MacCord, M., Chabot Fletcher, M., Breton, J., Marshall, L.A.; Journal of Investigative Dermatology, 1994, Vol. 102, pp. 980-986; Bouclier, M., Hensby C.N.; Annales de Dermatologie & de V{acute over (en)}reologie, 1986, Vol. 113, pp. 1289-1293).
The enzymatic system arachidonic acidlipoxygenase leads during the synthesis of leucotrienes to the formation of O2° which can be determined by luminescence via luminol. Activity against free radicals is greater, the more the luminescence is suppressed.

[2] = tested on: G6PDH (glucose 6 phosphate dehydrogenase); experiment: G6PDH activity on human dermal fibroblasts; assay type: cell-based; settings: control = 100, 8 assays
Source text: This test was used to determine stimulation of the enzyme G6PDH (glucose 6 phosphate dehydrogenase) which counteracts the ageing process of human skin. G6PDH catalyzes the first step of the “pentose shunt” (also known as hexose monophosphate shunt or HMP shunt). The first step, the transformation of glucose-6-phosphate (G6P) into 6-phosphogluconate (6GP) by G6PDH, needs the coenzyme NADP which in turn is converted into NADPH2. This reduced form of the coenzyme catalyzes many enzymatic reactions and also glutathione recycling and lipid synthesis.
Determination of the G6PDH activity (glucose 6 phosphate dehydrogenase) was carried out by the microprocess described by Garidelli de Quincenet in Annual Dermatol. Venereol. 107 (12), 1163-1170 (1980). The DNA content was determined by the method described by Desaulniers in Toxic. In vitro 12 (4), 409-422 (1998) using in vitro cultures of human dermal fibroblasts. […]

[3] = tested on: human keratinocytes; experiment: Cell protection against UV-B rays (cellular DNA, LDH release); assay type: cell-based; settings: UV-B 50 mJ/cm^2, conc. 0.01 % w/v
Description: UV-B was selected as the stress factor because the rays produce cutaneous inflammation ([…]) by activating enzymes that release arachidonic acid, such as phospholipase A2 (PLA2) for example. […] The influence of UV-B rays on keratinocytes was determined in vitro through the release of cytoplasmatic enzymes, such as LDH (lactate dehydrogenase) for example, which runs parallel to the cell damage and the formation of PGE2. To carry out the test, a fibroblast culture was mixed with foetal calf serum and inoculated with the test substances 2 days later. After incubation for 36 h at 37° C. and a CO2 level of 5% by vol., the nutrient medium was replaced by an electrolyte solution and the fibroblasts were damaged with a particular dose of UV-B (50 mJ/cm^2). The quantity of keratinocytes was determined after trypsination via a cell counter while the LDH concentration was enzymatically determined.

% Inhibition ([1]; concentration 0.00002 % w/v): 16%
% Inhibition ([1]; concentration 0.0002 % w/v): 54%
Compound: O=C(O)/C=C/c1ccc(O)c(O)c1 [Caffeic acid]

Compound: CC1=C(/C=C/C(C)=C/C=C/C(C)=C/C(=O)O)C(C)(C)CCC1 [Retinoic acid]
Level of G6PDH activity on day 6 (%/against control) Average value ([2]; concentration 0.0003 mM): 120 %/against control
Level of G6PDH activity on day 6 (%/against control) Average value ([2]; concentration 0.001 mM): 128 %/against control

Compound: O=C1O[C@H]([C@@H](O)CO)C(O)=C1O [ascorbic acid]
LDH released ([3]; blank with UV-B = 100): 50 %-rel.
Cellular DNA ([3]; blank without UV-B = 100, blank with UV-B = 29): 48 %-rel.
